Results published in ChEMBL document CHEMBL1201862, “PubChem BioAssay data set” (2004).
Active and inactive are the calls of the source.

What was measured:
[1] = target: T1, Delta-type opioid receptor (Homo sapiens, UniProt P41143); assay: HTS Image-Based Screen for Antagonists of the DOR Receptor. [Related pubchem assays (depositor defined):AID1777, AID1785, AID1786, AID2133]; format: functional
[2] = target: Mu-type opioid receptor (Homo sapiens, UniProt P35372); assay: HTS Image-Based Screen for Agonists of the MOR Receptor. [Related pubchem assays (depositor defined):AID1777, AID1785, AID1786, AID2133]; format: functional;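 also: imaging of beta-arrestin GFP recruitment into spots after receptor activation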
[3] = target: E3 ubiquitin-protein ligase Mdm2 (Homo sapiens, UniProt Q00987); assay: MDM2-luc reporter signal enhancers, multi-concentration potency testing, MDM2 ubiquitin-protein ligase inhibitor program, whole-cell format, luminescence detection, 384-well microplate (AID 1394); format: functional;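 also: MDM2 E3 inhibitors raise luminescence so EC50 is for signal enhancement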
[4] = test system: Streptococcus sp. 'group A'; assay: Streptococcus pyogenes SK(-)GAS viability under kanamycin – luminescence, BacTiterGlo, confirmation, counter-screen for streptokinase expression inhibitor project, dose response (AID 1900); format: functional, organism-based
[5] = target: T1, Delta-type opioid receptor; assay: HTS Image-Based Screen for Agonists of the DOR Receptor. [Related pubchem assays (depositor defined):AID1777, AID1786, AID2133]; format: functional
[6] = target: T2, Kappa-type opioid receptor (Homo sapiens, UniProt P41145); format: functional
[7] = target: T3, Voltage-gated inwardly rectifying potassium channel KCNH2 (Homo sapiens, UniProt Q12809); assay: concentration-dependent hERG rescue from blockers – cell-based, thallium flux, dose response (AID 2121); format: ADME
[8] = target: Beta-galactosidase (Escherichia coli, UniProt Q8VNN2); format: functional
[9] = target: T2, Kappa-type opioid receptor; format: functional; remark: listed apart in the source
[10] = target: Induced myeloid leukemia cell differentiation protein Mcl-1 (Homo sapiens, UniProt Q07820); format: functional
[11] = test system: Streptococcus; assay: GAS UMAA2166 growth inhibition – luminescence, BacTiterGlo, counter-screen for streptokinase expression inhibitor project, dose response (AID 1915); format: functional, organism-based; settings: read-out: EC50;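 also: potency for reduction of bacterial viability or growth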
[12] = target: T4, Heat shock factor protein 1 (Mus musculus, UniProt P38532); assay: enhancement of HSF1-driven luciferase signal – cell-based, NIH3T3, luminescence, dose retest, confirmation (AID 435004); format: functional;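 also: stress induced by proteasome inhibitor MG132 added 30 min after compound; luciferase reporter driven by HSF1 response element in NIH3T3 cells; actives raise luminescence as potentiators of the MG132 stress response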
T4 sequence (P38532 whole entry): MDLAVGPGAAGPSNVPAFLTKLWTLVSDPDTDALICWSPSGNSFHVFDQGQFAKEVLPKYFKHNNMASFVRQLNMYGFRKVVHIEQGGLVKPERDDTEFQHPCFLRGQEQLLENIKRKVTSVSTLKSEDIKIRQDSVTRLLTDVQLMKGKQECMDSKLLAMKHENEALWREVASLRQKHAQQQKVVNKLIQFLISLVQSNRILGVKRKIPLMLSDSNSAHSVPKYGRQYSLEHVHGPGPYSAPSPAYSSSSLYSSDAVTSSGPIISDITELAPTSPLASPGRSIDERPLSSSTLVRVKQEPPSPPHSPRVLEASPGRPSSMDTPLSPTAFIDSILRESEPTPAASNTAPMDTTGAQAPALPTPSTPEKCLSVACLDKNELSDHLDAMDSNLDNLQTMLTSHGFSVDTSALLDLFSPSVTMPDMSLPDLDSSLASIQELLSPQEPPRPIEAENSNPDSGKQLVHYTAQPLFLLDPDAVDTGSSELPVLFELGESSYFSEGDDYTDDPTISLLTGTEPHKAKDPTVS

[13] = test system: Vero; assay: cells; format: functional; settings: Chlorocebus sabaeus
[14] = reduction of Shn3 3'UTR-driven luciferase in osteoblasts – cell-based, Clone20 osteoblasts, firefly luciferase, cherry-picked, dose response (AID 624132); format: functional;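 also: firefly luciferase luminescence from reporter carrying the Shn3 3'UTR in osteoblasts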
[15] = loss of viability in HepG2 cells – cell-based, CellTiter-Glo, cherry-picked, cytotoxicity control for Shn3 inhibitor project, dose response (AID 624134); format: functional
[16] = non-specific 3'UTR reporter inhibition in Clone20-Shn3RL – cell-based, Renilla luciferase, cherry-picked, counter-screen for Shn3 inhibitor project, dose response (AID 624133); format: functional
[17] = target: T5, Short transient receptor potential channel 4 (Mus musculus, UniProt Q9QUQ5); assay: SAR Analysis for the identification of selective inhibits of the transient receptor potential cation channel C4 (TRPC4): Automated Electrophysiology. [Related pubchem assays (depositor defined):AID2256]; format: functional
T5 sequence (Q9QUQ5 whole entry): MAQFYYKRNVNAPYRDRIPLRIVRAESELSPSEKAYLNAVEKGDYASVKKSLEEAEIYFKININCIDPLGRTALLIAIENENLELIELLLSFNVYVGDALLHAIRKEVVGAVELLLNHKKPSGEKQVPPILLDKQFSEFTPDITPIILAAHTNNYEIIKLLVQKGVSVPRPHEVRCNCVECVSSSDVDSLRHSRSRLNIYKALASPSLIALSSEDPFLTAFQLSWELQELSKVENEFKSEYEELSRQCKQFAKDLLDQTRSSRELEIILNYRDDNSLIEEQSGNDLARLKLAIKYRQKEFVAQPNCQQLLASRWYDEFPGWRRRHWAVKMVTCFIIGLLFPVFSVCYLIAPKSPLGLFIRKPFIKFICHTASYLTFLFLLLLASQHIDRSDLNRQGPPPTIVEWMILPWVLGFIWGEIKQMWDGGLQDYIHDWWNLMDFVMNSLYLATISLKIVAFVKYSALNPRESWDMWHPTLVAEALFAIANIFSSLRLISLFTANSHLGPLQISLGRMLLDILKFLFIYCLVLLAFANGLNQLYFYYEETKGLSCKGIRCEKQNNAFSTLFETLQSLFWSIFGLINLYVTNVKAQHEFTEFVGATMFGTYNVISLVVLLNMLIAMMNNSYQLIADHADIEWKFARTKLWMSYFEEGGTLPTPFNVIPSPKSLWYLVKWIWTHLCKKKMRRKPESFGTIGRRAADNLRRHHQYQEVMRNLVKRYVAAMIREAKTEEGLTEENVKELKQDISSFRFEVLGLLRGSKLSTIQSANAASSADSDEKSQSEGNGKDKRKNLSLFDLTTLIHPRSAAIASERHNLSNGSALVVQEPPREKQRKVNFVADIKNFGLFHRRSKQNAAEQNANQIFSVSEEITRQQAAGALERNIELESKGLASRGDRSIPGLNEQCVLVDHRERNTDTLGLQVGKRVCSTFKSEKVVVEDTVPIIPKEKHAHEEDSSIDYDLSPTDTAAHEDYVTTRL

[18] = target: T5, Short transient receptor potential channel 4; assay: mouse TRPC4 block via Gq-coupled stimulation – cell-based, acetylcholine stimulus, HEK293 TRPC4, Fluo-4, SAR follow-up (AID 492996); format: functional
[19] = target: Short transient receptor potential channel 6 (Mus musculus, UniProt Q61143); assay: mouse TRPC6 channel blockers, concentration series – HEK293 cells, membrane potential dye, IC50, selectivity assay for selective TRPC4 inhibitor project, dose response (AID 492987); format: functional, cell-based
[20] = target: T5, Short transient receptor potential channel 4; assay: potency of mouse TRPC4 calcium flux blockers – cell-based, HEK293 TRPC4/mu-opioid, DAMGO stimulus, Fluo-4, dose response (AID 492994); format: functional
[21] = test system: INS1; assay: beta-cell survival under cytokine stress – INS-1E, ATP luminescence, dry powder, dose response (AID 488844); format: functional, cell-based; settings: Rattus norvegicus
[22] = target: T6, Mannose-6-phosphate isomerase (Homo sapiens, UniProt P34949); assay: phosphomannose isomerase inhibition – biochemical, fluorescence intensity, confirmation (AID 1535)
T6 sequence (P34949 whole entry): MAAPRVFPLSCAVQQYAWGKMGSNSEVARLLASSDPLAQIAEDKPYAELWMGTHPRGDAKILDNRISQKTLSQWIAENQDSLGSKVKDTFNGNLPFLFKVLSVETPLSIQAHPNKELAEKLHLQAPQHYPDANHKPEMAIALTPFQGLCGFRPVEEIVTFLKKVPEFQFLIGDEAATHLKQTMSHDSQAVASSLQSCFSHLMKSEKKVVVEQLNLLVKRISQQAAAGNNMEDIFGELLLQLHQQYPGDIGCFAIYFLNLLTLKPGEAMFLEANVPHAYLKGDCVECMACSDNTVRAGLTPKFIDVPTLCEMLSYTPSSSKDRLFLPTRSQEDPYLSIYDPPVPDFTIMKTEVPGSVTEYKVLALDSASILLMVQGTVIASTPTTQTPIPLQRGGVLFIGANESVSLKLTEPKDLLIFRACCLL

[23] = target: Phosphomannomutase 2 (Homo sapiens, UniProt O15305); assay: Counter screen SAR assay for PMM2 inhibitors via a fluorescence intensity assay. [Related pubchem assays (depositor defined):AID1545, AID1574]
[24] = target: Potassium voltage-gated channel subfamily KQT member 2 (Rattus norvegicus, UniProt O88943); assay: rat KCNQ2 current potentiators – automated patch clamp, KCNQ2-CHO cells, SAR follow-up (AID 493113); format: functional
[25] = target: Dual specificity protein phosphatase 3 (Homo sapiens, UniProt P51452); assay: SAR VHR1 Fluorescent Assay for In Vitro dose response studies Set 3. [Related pubchem assays (depositor defined):AID1654, AID1661, AID1878]; format: functional
[26] = target: Luciferin 4-monooxygenase (Photinus pyralis, UniProt P08659); assay: inhibition of purified Photinus pyralis luciferase – biochemical, luminescence, dose response (AID 1891)
[27] = Luminescence Cell-Based Dose Confirmation HTS to Identify Inhibitors of Platelet Dense Granule Release. [Related pubchem assays: 1663 (Primary HTS), 1678 (Summary of Project)]; format: functional
[28] = target: Cytochrome P450 2C19 (Homo sapiens, UniProt P33261); assay: Cytochrome panel assay with activity outcomes. Panel member name: p450-cyp2c19 Compounds with AC50 equal or less than 10 uM are considered active; format: functional; settings: read-out: AC50
[29] = target: fMet-Leu-Phe receptor (Homo sapiens, UniProt P21462); assay: formyl peptide receptor binders – dose response (AID 519); format: functional
[30] = target: Cytochrome P450 2D6 (Homo sapiens, UniProt P10635);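 also: CYP2D6 member of a cytochrome P450 panel assay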
[31] = target: T3, Voltage-gated inwardly rectifying potassium channel KCNH2; settings: Potency
[32] = Luminescence Cell-Based Dose Retest to Confirm Inhibitors of Cancer Stem Cells. [Related pubchem assays (depositor defined):AID2717, AID2721]; format: functional; settings: Homo sapiens
[33] = viability loss of HMLE_sh_eGFP cells – cell-based, luminescence, counter-screen for HMLE_sh_ECad selective toxicity project, dose response (AID 463074); format: functional, Homo sapiens;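 also: HMLE human mammary epithelial cells expressing control shRNA against eGFP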
[34] = target: Dual specificity protein kinase CLK1 (Homo sapiens, UniProt P49759); assay: inhibition of human CLK1 activity – biochemical, cherry-picked samples, selectivity assay for Dyrk1A inhibitor project, dose response (AID 588811)

T1 sequence (P41143 whole entry): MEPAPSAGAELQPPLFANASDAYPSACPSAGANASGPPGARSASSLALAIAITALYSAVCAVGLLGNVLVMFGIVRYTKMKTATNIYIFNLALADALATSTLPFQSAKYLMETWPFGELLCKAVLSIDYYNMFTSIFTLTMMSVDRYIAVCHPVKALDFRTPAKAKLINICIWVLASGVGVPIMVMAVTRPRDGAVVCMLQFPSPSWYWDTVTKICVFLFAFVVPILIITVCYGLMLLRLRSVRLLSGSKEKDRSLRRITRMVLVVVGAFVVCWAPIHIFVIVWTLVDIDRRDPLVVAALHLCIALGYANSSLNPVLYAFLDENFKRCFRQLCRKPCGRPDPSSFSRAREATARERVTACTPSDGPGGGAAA
T2 sequence (P41145 whole entry): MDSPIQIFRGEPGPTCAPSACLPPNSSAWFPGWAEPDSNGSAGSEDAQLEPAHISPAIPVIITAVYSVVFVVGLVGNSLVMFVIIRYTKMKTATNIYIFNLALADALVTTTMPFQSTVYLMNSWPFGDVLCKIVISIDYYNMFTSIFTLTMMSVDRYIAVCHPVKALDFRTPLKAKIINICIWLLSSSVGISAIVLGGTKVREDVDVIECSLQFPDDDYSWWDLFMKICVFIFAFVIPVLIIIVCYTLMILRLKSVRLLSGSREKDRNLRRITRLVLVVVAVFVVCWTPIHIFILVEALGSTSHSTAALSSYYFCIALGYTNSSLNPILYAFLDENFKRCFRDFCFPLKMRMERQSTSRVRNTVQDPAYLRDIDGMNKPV
T3 sequence (Q12809 whole entry): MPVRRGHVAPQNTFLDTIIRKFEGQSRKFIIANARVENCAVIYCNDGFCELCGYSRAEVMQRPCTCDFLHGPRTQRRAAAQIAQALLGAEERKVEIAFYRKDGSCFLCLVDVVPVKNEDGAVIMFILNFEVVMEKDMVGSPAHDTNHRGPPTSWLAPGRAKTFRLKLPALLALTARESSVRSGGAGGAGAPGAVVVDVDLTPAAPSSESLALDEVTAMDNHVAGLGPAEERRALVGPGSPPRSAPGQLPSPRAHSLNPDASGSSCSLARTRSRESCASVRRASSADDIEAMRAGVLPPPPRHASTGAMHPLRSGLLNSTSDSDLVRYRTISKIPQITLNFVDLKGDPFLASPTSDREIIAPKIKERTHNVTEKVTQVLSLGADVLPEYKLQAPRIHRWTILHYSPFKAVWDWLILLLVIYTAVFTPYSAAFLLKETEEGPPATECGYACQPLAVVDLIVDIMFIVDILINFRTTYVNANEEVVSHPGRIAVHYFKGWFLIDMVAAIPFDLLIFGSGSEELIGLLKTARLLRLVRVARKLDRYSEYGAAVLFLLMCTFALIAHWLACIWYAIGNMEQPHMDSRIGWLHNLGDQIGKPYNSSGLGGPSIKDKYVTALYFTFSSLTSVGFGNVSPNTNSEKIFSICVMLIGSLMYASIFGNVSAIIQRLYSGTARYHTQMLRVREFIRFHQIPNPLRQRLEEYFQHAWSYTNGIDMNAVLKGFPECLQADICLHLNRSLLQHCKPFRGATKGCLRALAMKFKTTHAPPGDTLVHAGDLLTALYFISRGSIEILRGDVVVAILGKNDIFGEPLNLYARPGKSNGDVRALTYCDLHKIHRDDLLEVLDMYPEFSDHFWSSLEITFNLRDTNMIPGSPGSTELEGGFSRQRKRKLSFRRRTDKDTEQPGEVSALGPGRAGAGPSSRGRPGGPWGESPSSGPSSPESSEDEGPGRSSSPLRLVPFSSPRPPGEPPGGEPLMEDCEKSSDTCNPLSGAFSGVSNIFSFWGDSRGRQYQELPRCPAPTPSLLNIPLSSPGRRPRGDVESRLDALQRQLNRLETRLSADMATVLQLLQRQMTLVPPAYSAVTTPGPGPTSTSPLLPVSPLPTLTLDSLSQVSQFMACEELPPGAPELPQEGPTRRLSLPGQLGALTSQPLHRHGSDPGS
Phosphomannomutase 2, sequence (O15305 whole entry): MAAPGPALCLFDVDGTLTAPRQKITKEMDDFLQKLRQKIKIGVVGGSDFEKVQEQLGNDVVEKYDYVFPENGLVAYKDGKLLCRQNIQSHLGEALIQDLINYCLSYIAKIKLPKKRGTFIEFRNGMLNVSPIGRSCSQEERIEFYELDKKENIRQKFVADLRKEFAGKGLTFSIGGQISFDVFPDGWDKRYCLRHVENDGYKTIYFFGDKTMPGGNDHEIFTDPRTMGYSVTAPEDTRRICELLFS
fMet-Leu-Phe receptor, sequence (P21462 whole entry): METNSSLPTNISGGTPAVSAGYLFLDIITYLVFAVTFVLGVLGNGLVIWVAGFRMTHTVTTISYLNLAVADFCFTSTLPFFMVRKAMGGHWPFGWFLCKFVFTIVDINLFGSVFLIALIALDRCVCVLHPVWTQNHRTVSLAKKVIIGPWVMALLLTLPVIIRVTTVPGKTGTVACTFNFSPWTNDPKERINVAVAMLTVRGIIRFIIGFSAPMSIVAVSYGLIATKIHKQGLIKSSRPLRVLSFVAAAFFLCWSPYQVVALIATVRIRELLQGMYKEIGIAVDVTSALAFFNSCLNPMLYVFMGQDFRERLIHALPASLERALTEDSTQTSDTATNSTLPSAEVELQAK
Potassium voltage-gated channel subfamily KQT member 2, sequence (O88943 whole entry): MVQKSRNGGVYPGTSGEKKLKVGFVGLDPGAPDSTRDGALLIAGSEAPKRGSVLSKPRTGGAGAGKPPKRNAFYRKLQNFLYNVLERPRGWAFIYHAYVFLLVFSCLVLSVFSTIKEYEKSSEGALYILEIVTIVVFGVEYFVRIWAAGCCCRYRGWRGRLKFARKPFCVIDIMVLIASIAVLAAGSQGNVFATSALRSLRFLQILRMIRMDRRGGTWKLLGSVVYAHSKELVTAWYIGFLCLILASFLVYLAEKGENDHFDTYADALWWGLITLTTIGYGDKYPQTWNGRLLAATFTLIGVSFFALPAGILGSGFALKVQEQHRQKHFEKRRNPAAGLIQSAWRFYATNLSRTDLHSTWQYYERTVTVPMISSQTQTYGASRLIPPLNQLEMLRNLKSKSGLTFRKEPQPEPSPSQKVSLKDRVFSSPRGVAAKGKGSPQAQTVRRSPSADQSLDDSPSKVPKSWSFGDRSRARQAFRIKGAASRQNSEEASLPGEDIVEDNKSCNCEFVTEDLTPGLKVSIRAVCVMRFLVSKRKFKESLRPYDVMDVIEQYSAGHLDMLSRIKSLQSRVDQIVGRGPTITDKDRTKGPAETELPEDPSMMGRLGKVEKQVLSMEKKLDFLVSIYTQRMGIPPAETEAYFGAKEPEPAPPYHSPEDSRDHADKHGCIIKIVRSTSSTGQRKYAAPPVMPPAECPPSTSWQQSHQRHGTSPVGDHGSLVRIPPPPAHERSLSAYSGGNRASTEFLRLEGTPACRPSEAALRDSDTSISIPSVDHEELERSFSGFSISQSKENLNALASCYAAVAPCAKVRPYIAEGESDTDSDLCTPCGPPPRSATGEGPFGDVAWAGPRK
E3 ubiquitin-protein ligase Mdm2, sequence (Q00987 whole entry): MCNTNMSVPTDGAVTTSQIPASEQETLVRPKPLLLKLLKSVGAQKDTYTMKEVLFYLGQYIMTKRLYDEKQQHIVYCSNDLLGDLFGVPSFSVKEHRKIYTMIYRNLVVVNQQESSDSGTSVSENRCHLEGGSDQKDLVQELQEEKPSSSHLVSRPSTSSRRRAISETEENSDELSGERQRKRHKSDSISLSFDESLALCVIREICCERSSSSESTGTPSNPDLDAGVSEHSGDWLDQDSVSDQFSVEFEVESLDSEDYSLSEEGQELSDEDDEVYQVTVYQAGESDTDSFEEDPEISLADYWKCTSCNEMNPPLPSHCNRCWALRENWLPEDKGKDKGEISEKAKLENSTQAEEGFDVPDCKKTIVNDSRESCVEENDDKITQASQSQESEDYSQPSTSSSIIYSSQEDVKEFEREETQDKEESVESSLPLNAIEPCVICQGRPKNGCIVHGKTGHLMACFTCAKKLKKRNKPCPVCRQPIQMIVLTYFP
Cytochrome P450 2D6, sequence (P10635 whole entry): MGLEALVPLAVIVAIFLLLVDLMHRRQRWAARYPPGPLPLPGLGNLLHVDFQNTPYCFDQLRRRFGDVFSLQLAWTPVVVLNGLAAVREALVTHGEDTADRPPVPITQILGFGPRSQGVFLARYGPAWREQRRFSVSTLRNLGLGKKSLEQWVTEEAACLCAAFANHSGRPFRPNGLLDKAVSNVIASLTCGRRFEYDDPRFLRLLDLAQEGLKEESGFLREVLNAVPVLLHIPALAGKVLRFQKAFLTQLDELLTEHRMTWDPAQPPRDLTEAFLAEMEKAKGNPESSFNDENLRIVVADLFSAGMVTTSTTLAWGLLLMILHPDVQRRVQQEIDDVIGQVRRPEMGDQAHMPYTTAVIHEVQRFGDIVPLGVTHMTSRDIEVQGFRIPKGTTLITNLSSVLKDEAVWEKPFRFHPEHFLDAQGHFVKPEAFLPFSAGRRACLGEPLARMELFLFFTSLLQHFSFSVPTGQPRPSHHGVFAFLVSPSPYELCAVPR
Induced myeloid leukemia cell differentiation protein Mcl-1, sequence (Q07820 whole entry): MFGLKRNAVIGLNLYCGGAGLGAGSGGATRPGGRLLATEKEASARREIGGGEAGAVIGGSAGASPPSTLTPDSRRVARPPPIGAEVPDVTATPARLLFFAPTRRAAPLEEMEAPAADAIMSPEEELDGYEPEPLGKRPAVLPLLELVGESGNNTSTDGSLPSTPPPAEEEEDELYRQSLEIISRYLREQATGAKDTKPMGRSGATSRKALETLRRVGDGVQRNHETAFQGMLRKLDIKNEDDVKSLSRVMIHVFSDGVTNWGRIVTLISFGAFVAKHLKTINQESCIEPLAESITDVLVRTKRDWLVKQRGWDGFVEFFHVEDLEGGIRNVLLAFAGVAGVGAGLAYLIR
Dual specificity protein phosphatase 3, sequence (P51452 whole entry): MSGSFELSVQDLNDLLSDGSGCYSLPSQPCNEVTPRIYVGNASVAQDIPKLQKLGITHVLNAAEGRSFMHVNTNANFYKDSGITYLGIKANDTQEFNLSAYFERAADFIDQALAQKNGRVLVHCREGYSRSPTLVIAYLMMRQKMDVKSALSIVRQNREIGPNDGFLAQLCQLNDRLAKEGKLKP

SMILES: N=C1S/C(=C\c2ccc(-c3cccc(Cl)c3)o2)C(=O)N1c1nccs1
- IC50 [1]: > 32 µM (inactive)
- EC50 [2]: > 32 µM (inactive)
- EC50 [3]: 0.01 µM (not active)
- EC50 [4]: < 0.06 µM (active)
- EC50 [5]: > 32 µM (inactive)
- IC50 [6]: 5.72 µM (active)
- EC50 [7]: 0.42 µM (active)
- EC50 [8]: > 31.5 µM (inactive)
- IC50 [9]: > 32 µM
- IC50 [10]: 0.745 µM (active)
- EC50 [11]: 0.228 µM (active)
- EC50 [12]: 5.39 µM (active)
- CC50 [13]: 4.5 µM (active)
- AC50 [14]: 2.82 µM (active)
- AC50 [15]: 13.7 µM (active)
- AC50 [16]: 6.17 µM (active)

SMILES: Cc1cc(N2CCC[C@@H]2C)nc2ccccc12
- IC50 [17]: 4.26 µM (active)
- IC50 [18]: 17.1 µM (active)
- IC50 [19]: 11.8 µM (active)
- IC50 [20]: 2.5 µM (active)

SMILES: COc1ccc(S(=O)(=O)N(C)C[C@@H]2Oc3c(NS(=O)(=O)c4ccc(Cl)cc4)cccc3C(=O)N([C@@H](C)CO)C[C@H]2C)cc1
- AC50 [21]: > 260 µM (inactive)

SMILES: Clc1nss/c1=N\c1ccccc1Br
- IC50 [22]: 11.9 µM (active)
- IC50 [23]: 57.3 µM (active)

SMILES: O=C(Nc1ccc(Cl)cc1Cl)C1CC2CCC1C2 (centres undefined)
- EC50 [24]: 1.52 µM (active)

SMILES: CC(C)(C)c1ccc(C(=O)NCc2nnc(SCC(=O)Nc3nc4ccccc4s3)n2-c2cccc(Cl)c2)cc1
- IC50 [25]: > 66 µM (inactive)

SMILES: Cc1ccc(C2C(C(=O)c3sc(C)nc3C)=C(O)C(=O)N2CCN2CCOCC2)o1 (centres undefined)
- EC50 [26]: > 112 µM (not active)
- EC50 [27]: > 112 µM (not active)
- AC50 [28]: 0.00562 µM (inconclusive)
- Ki [29]: > 66.7 µM (inactive)
- AC50 [30]: inconclusive

SMILES: O=C(Cc1ccc(Cl)c(Cl)c1)N1CCCCC1CN1CCCC1 (centres undefined)
- AC50 [31]: 25.1 µM (inconclusive)

SMILES: Cc1ccc(OCC(=O)NNC(=S)NC(=O)c2cccs2)c(C)c1
- AC50 [32]: 9.13 µM (active)
- AC50 [33]: 37.8 µM (active)

SMILES: CN(Cc1cccs1)c1ncnc2ccc(-c3ccc4c(c3)OCO4)cc12
- AC50 [34]: < 0.00195 µM (active)
